Test results as given in patent EP3118219A1, “NICOTINIC CHANNEL SUBUNITS OF […] AND THEIR USES THEREOF” (priority 2015, dated 2017).

Assays:
[1] = molecular target: T1, Apis mellifera nicotinic acetylcholine receptor Am-nAChRα7 (nAChR α7 subunit, SEQ ID NO: 7), expressed with ric3 (Apis mellifera, UniProt A0ACM8Q2V8); assay: Two-electrode voltage-clamp dose-response on Xenopus laevis oocytes expressing the nAChRα7 subunit (with ric3); assay type: cell-based
T1 sequence (A0ACM8Q2V8 21-555): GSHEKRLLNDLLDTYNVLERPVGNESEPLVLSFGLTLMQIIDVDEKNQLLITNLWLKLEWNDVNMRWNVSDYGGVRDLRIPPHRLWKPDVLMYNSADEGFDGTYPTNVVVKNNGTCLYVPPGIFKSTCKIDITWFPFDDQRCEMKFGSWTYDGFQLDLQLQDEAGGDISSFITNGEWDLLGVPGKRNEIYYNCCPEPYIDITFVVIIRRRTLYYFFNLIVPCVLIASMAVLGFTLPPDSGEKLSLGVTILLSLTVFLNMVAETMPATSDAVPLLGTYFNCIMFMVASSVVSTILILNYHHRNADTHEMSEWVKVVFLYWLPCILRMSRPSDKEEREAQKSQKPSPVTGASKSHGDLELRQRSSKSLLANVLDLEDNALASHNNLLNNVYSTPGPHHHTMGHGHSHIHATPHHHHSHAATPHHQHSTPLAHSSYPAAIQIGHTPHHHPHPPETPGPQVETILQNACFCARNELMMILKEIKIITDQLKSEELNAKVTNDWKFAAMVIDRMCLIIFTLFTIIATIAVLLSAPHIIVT
Experimental: (§1) For example, ric3 (from C.elegans, the nucleic acid sequence being SEQ ID NO: 64 and the amino acid sequence being SEQ ID NO: 65, or honeybee) is clearly necessary to get a reliable expression of the nAChR α7 subunit and a response to ACh, while for the nAChRα5 subunit a cocktail of emc6, unc50 and unc74 chaperone proteins improves expression with response amplitude between 0.1 to several µA for ACh concentration between 1 to 1000µM (Figure 2). In the case of the nAChRα3 subunits, expression can be obtain either alone, or in combination with different cocktails of chaperone or with the vertebrate β2 nAChR subunits. Each of these combinations has a specific affinity for ACh. […]
(§2) Typically, an oocyte, injected 2 to 5 days before with a given mixture of RNA is placed in the recording chamber filled with the desired solution (usually Na100). […] Both electrodes are then impaled into the oocyte and the resting membrane potential is measured (typically -30/- 50 mV). […] Sometime, the effect of a test compound can be determined directly, by applying 50 µl of the compound directly to the bath (with the main perfusion stopped) at the final working concentration (usually 100-1000 µM), after proper dilution from a stock solution (usually 10 mM in water or DMSO or ethanol) into the desired recording solution. […]

[2] = test system: Apis mellifera nicotinic acetylcholine receptor Am-nAChRα5 (nAChRα5 subunit, SEQ ID NO: 5), expressed with unc74+unc50+emc6; assay: Two-electrode voltage-clamp dose-response on Xenopus laevis oocytes expressing the nAChRα5 subunit (with unc74+unc50+emc6); assay type: cell-based; details: current in Xenopus oocytes, dose-response curve; traces at 500 µM (Figure 4)
Experimental: as §1, §2

With `CN/C(=N\[N+](=O)[O-])NCc1cnc(Cl)s1` [clothianidin] the EC50 [1] was about 10 µM, the “agonist efficacy compared with ACh” value ([1]; dose-response curves of ACh and clothianidin recorded on the same oocyte (Figure 4C)) was “less effective agonist than ACh” and the sensitivity to clothianidin [2] was “completely insensitive”.
